Reference: patent EP4609859A1, “INHIBITORS OF THE GENE SMPD1 FOR THE TREATMENT OF SPINAL MUSCULAR ATROPHY” (Universidad Pablo de Olavide, priority 2024, dated 2025)

Experiments:
nematode development = assay: Visible effect of drug treatment on nematode development; format: in vivo, C. elegans; conditions: at the concentrations tested in the SMN-1 assay
Method: (§1) RNAi feeding was performed as described (Kamath and Ahringer, 2003). RNAi clones belong to the Aringher gene library were used: JA:C41G7.1 (smn-1), JA:T18D3.7 (tsct-1), JA:WO3G1.7 (asm-3), JA:C07A12.7 (C07A12.7), JA:C10E2.3 (hda-4), JA:K09A9.4 (usp-33), JA:R01B10.1 (cpi-2), JA:K08B4.6 (cpi-1), JA:K06A4.3 (gsnl-1), JA:F23H11.4 (F23H11.4), JA:T18H9.7 (pacs-1), JA:C41G7.1 (smn-1) and MV_SV: mv_ZK455.4 (asm-2) from Marc Vidal's gene library (Kim et al., 2005). For smn-1 expression assays, gravid hermaphrodites were transferred to empty plasmid pL4440 or RNAi plates, incubated at 20°C for 48 hours and the next generation was analyzed at the L4 stage. For the drug assay, NGM plates were prepared at the indicated concentrations and the respective vehicle was used as a control, then proceeded as in the RNAi assay.

SMN protein [1] = assay: Western blot of SMN in human SMA patient fibroblasts; format: cell-based; conditions: SMAII and SMAI fibroblasts, 5µM, 10µM, or 25µM, 24 h
Method: Fibroblasts were maintained in Eagle's Minimum Essential Medium (MEM) (Sigma) supplemented with 15% (v/v) non-inactivated fetal bovine serum (FBS) (Gibco), 0.5M of L-Glutamine (Gibco), 1% (v/v) non-essential amino acids, and 20µg/ml of Penicillin-Streptomycin (Gibco). For western blot analysis, cells were plated at 3,000-4,000 cells/cm2 in 35mm dishes and cultured in supplemented MEM for 24 h. For immunofluorescence experiments, 3,000 cells/well were plated in collagen-coated 1cm2 glass coverslips placed into four-well dishes and fixed in 4% paraformaldehyde (Sigma) in PBS.
Western blots were performed as previously described (Gou-Fabregas et al., 2009). Cell lysates were resolved in sodium dodecyl-sulfate polyacrylamide (SDS-PAGE) gels and transferred onto polyvinylidene difluoride (PVDF) Immobilon-P transfer membranes (Millipore, Burlington, MA, USA) using an Amersham Biosciences semidry Trans-Blot (Buckinghamshire, UK). Membranes were blotted with: anti-SMN (1: 5,000, Cat. No. 610646, BD Transduction Laboratories, Franklin Lakes, NJ, USA) and anti-SMPD1 (1: 300, Cat. No. 14609-1-AP, ProteinTech, Manchester, UK). To control the specific protein content per lane, membranes were reproved with anti-α-tubulin antibody (1: 50,000, Cat. No. T5168, Sigma). […]

SMPD1 [2] = target: T1, SMPD1 (Homo sapiens, UniProt P17405); assay: Immunofluorescence (CTCF) of SMPD1 in differentiated human SMA MNs; format: cell-based; conditions: SMAI MNs, 10µM, 24 h; untreated 126.7±5.74; p<0.0001
T1 construct: host or cells: human SMA type 2 patient fibroblasts (SMAII)
T1 sequence (P17405 47-631): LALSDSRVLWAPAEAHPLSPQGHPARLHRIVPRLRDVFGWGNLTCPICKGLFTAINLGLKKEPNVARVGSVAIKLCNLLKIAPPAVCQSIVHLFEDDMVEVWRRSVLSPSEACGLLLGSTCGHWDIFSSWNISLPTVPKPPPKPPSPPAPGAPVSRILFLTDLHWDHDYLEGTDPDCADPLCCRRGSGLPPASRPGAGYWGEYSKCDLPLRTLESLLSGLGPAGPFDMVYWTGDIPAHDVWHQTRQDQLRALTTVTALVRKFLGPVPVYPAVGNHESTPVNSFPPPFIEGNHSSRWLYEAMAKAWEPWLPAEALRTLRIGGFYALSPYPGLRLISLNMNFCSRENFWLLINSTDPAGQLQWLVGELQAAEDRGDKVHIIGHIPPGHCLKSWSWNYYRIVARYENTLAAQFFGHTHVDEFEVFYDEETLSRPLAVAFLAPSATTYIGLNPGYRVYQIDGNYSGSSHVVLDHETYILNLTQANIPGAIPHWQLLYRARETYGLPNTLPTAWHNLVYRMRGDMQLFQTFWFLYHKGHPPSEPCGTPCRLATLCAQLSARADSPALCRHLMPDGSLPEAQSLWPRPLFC
Excerpt: Three human iPSCs lines were used in the present work. The GM23411*B (Coriell Institute) iPSC cell line obtained from a healthy […] individual was used as control. The GM23240*B (Coriell Institute) iPSCs obtained from a fibroblast cell line of a […] SMA type 2 patient (2 copies SMN2; deletion exon7-8 in SMN1) was used as SMAII condition. SMAII patient was previously classified as SMA type 1, but several data supported re-classification to SMA type 2. The CS84iSMA-nxx (Cedar Sinai, Los Angeles, USA) iPSCs obtained from a lymphoblast cell line of a […] SMA type 1 patient (2 copies SMN2; deletion exon7-8 in SMN1) was used as SMAI condition. […]
(§2) Cultured cells were fixed with 4% paraformaldehyde (Sigma) for 10 min and cold methanol (Sigma) for 30 min more. […] Quantification of fluorescence intensity was performed blinded, using the NIH ImageJ software (Schindelin et al., 2012). Using phase contrast images, the cell perimeter was manually delimited and transferred to the corresponding fluorescence images. The Integrated Density (IntDen) was measured in the selected area of the cell. Three non-fluorescent surrounding regions were measured to set up the background readings. The fluorescence intensity was calculated using the following formula: Corrected Total Cell Fluorescence (CTCF) = IntDen (sum of the values of the pixels in the selection) - (area of the cell x mean fluorescence of the background).

SMN protein [3] = assay: Western blot of SMN in iPSC-differentiated human SMA MNs; format: cell-based; conditions: remaining doses of 5µM, 10µM, 20µM in SMAI and SMAII MNs, 24 h
Excerpt: Three human iPSCs lines were used in the present work. The GM23411*B (Coriell Institute) iPSC cell line obtained from a healthy […] individual was used as control. The GM23240*B (Coriell Institute) iPSCs obtained from a fibroblast cell line of a […] SMA type 2 patient (2 copies SMN2; deletion exon7-8 in SMN1) was used as SMAII condition. SMAII patient was previously classified as SMA type 1, but several data supported re-classification to SMA type 2. The CS84iSMA-nxx (Cedar Sinai, Los Angeles, USA) iPSCs obtained from a lymphoblast cell line of a […] SMA type 1 patient (2 copies SMN2; deletion exon7-8 in SMN1) was used as SMAI condition.
Human iPSCs were differentiated to MNs as previously described (de la Fuente et al., 2020; Du et al., 2015). Cell lines were cultured and expanded on Geltrex (Sigma)-coated plates in Essential 8 medium (Gibco). Neuroepithelial cells and MN progenitors were generated following the established protocol. To induce MN differentiation, MN progenitors were detached with Accutase (Gibco) and cultured in suspension in MN induction medium (DMEM/F12: NBM plus 1:1 supplemented with B27, L-glutamine [all from Gibco], 0.1mM ascorbic acid [Sigma], 3µM CHIR99021; 2µM SB431512, 2µM DMH1 [all from Cayman, Ann Harbor, MI, USA], 0.5µM retinoic acid [Sigma], and 0.1µM purmorphamine [Cayman]). […]

SMPD1 [4] = target: T1, SMPD1; assay: Immunofluorescence (CTCF) of SMPD1 in human SMA fibroblasts; format: cell-based; conditions: SMAII fibroblasts, 20µM, 24 h; untreated 105.8±5.64; p<0.0001
Method: Two human fibroblasts cell lines from SMA patients (GM03813, SMA type 2 patient, SMAII; and GM09677, SMA type 1 patient, SMAI) and one healthy control (GM03814, Control) were obtained and cultured following the manufacturer instructions. Fibroblasts were maintained in Eagle's Minimum Essential Medium (MEM) (Sigma) supplemented with 15% (v/v) non-inactivated fetal bovine serum (FBS) (Gibco), […] of L-Glutamine (Gibco), 1% (v/v) non-essential amino acids, and 20µg/ml of Penicillin-Streptomycin (Gibco). For western blot analysis, cells were plated at 3,000-4,000 cells/cm2 in 35mm dishes and cultured in supplemented MEM for 24 h. […]
as §2

SMN-1 = SMN-1 level by head fluorescence in C. elegans strain mCherry::smn-1 (PHX2635) after drug treatment; format: in vivo; conditions: for level of SMN-1, repeated experiments on different days: Fig. 11, vs non-treated animals
Excerpt: C. elegans strains were cultivated under standard conditions (Stiernagle, 2006). The strains used are as follows: PHX2635: smn-1(syb2635); BN1158: bqSi1152[pBN521(unc-119(+) eft-3p::Frt::mCh::his-58::Frt::UPRT)]II; bqSi577[pBN306(unc-119(+) myo-2p::GFP)] IV. unc-119(ed9)III . The Escherichia coli strains used were: OP50 and HT115.
The strain PHX2635: smn-1(syb2635) was generated by CRISPR technology, we introduced the coding sequence of the fluorescent protein m-Cherry upstream of the TAA stop codon of the C. elegans SMN1 homologous gene, smn-1, as indicated in the sequence: [formula]
as §1, with “For smn-1 expression assays, gravid hermaphrodites were transferred to empty plasmid pL4440 or RNAi plates, incubated at 20°C for 48 hours and the next generation was analyzed at the L4 stage.” left out
L4 worms were mounted in a coverslip with a 2% agarose pad. C. elegans confocal images were acquired using a Nikon A1R microscope equipped with a 60x Plan Apo lens of Numerical Aperture 1.4. Twelve pictures were taken for each worm to be integrated in a Z image. […] Laser intensity, gain and pixel scan speed remained constant along all sets of experiments.
For image analysis, we used FIJI software. The experimentalist drew manually a ROI containing between the second pharynx bulb and the mouth of the nematode. Within this area, mCherry expression was detected using an intensity threshold that remained constant along all images. This minimum intensity level was defined by the experimenter. Within the thresholded volume, we measured the integrated density using the plugin 3D object counter (Bolte and Cordelières, 2006). […]

Row | Structure (SMILES) | visible effect on nematode development (nematode development) | SMN protein level (SMN protein [1]) | SMPD1 relative fluorescence in cell soma (CTCF) (SMPD1 [2]) | SMN protein compared to untreated control (SMN protein [3]) | SMPD1 relative fluorescence in cell soma (CTCF) (SMPD1 [4]) | SMN-1 level after treatment exclusively during the adult stage (SMN-1; 100 µM, 48 hours, started at adulthood, vs untreated) | level of SMN-1, repeated experiments on different days (SMN-1; 100 µM) | level of SMN-1, repeated experiments on different days (SMN-1; 500 µM)
1 | CCOC(=O)C1=C(COCCN)NC(C)=C(C(=O)OC)C1c1ccccc1Cl (stereo not shown) [amlodipine] | delay in nematode development |  |  |  |  |  |  | 
2 | CN(C)CCCN1c2ccccc2CCc2ccc(Cl)cc21 [clomipramine] | did not show a visible negative effect | did not increase SMN protein level | 91.62±3.64 | No significant differences | 56.59±4.03 | significant increase | statistically significant increase | 
3 | CNCCCN1c2ccccc2CCc2ccccc21 [desipramine] | delay in nematode development |  |  |  |  |  |  | statistically significant increase
